Drawing on PubChem BioAssay (NCI), this text covers GI50 and TGI for 4 molecules.

The structures appear in SMILES notation.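 Tested at 5 concentrations; 48 h exposure; 96-well plates; endpoints linearly interpolated, else capped at highest concentration. Abbreviation: GI50, concentration required for 50% inhibition of growth. TGI marks complete inhibition of growth.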

Test systems include RPMI-8226 leukemia; MDA-MB-231 breast; M14 melanoma; OVCAR-4 ovarian; SNB-19 CNS; A498 renal; BT-549 breast; NCI-H226 lung; OVCAR-8 ovarian; COLO 205 colon.
What all share (test): growth of human tumour cells (NCI), 48 h

On to `COc1cc(OC)c(C(=O)/C=C/c2cccc(OC(C)=O)c2)cc1CC=C(C)C`, for which the GI50 is 8.94 µM in the experiment with RPMI-8226 leukemia; 13.1 µM in the experiment with MDA-MB-231 breast; 7.3 µM in the experiment on M14 melanoma; 5.73 µM in the experiment on OVCAR-4 ovarian; 9.2 µM in the experiment on SNB-19 CNS; 16.9 µM in the experiment with A498 renal. Moreover, the GI50 is 6.28 µM in the experiment on BT-549 breast, 12.8 µM with NCI-H226 lung, 8.38 µM in the experiment on OVCAR-8 ovarian and 6.96 µM in the experiment with COLO 205 colon. In addition, the TGI is 33.7 µM in the experiment with RPMI-8226 leukemia; above 50 µM with MDA-MB-231 breast; 18.2 µM in the experiment with M14 melanoma; above 50 µM in the experiment on OVCAR-4 ovarian; 17.2 µM in the experiment with SNB-19 CNS; above 50 µM with A498 renal. In addition, the TGI in the experiment with BT-549 breast was 36.6 µM; with NCI-H226 lung, 40.7 µM; in the experiment with OVCAR-8 ovarian it was above 50 µM; in the experiment with COLO 205 colon it was 14.2 µM.
In the case of `CC(=O)OC1Oc2ccccc2-c2oc(=O)c(-c3cc4ccccc4oc3=O)cc21` (stereo not given), the GI50 in the experiment on RPMI-8226 leukemia is 18.7 µM; with MDA-MB-231 breast, 17.4 µM; in the experiment with M14 melanoma, 36.6 µM; with OVCAR-4 ovarian it was 23.1 µM; in the experiment with SNB-19 CNS, 17 µM; in the experiment with A498 renal, 18.8 µM. The GI50 was 18.6 µM in the experiment on BT-549 breast, 17.1 µM in the experiment on NCI-H226 lung, 17.8 µM in the experiment on OVCAR-8 ovarian and 35.5 µM with COLO 205 colon. Also, the TGI in the experiment with RPMI-8226 leukemia is 41.2 µM; in the experiment with MDA-MB-231 breast it was 35 µM; with M14 melanoma, above 100 µM; in the experiment on OVCAR-4 ovarian, 50.9 µM; with SNB-19 CNS, 32.4 µM; in the experiment with A498 renal it was 43.9 µM. Moreover, the TGI is 40.1 µM in the experiment on BT-549 breast, 35.4 µM in the experiment with NCI-H226 lung, 36.7 µM in the experiment on OVCAR-8 ovarian and above 100 µM in the experiment on COLO 205 colon.
With `Cc1c(N=Cc2ccc(N(CCC#N)CCC#N)cc2)c(=O)n(-c2ccccc2)n1C`, the TGI in the experiment on RPMI-8226 leukemia, in the experiment with MDA-MB-231 breast, in the experiment with M14 melanoma, in the experiment on OVCAR-4 ovarian, in the experiment with SNB-19 CNS and with A498 renal was above 100 µM each time. Moreover, the TGI with BT-549 breast, in the experiment with NCI-H226 lung, in the experiment on OVCAR-8 ovarian and in the experiment with COLO 205 colon was above 100 µM throughout.
As to `O=C(COc1cccc(/C=C2\CSc3ccccc3C2=O)c1)c1ccc(Cl)cc1`, the GI50 in the experiment with RPMI-8226 leukemia was above 100 µM; with MDA-MB-231 breast, 4.48 µM; in the experiment on M14 melanoma it was 1.63 µM; in the experiment on OVCAR-4 ovarian, 3.09 µM; in the experiment with SNB-19 CNS, 3.18 µM; with A498 renal, 3.95 µM. The GI50 is 1.69 µM with BT-549 breast, 4.43 µM in the experiment with NCI-H226 lung, 2.53 µM in the experiment with OVCAR-8 ovarian and 2.89 µM with COLO 205 colon. The TGI with RPMI-8226 leukemia was above 100 µM; in the experiment with MDA-MB-231 breast it was 14.8 µM; with M14 melanoma, 3.09 µM; with OVCAR-4 ovarian it was above 42.1 µM; in the experiment with SNB-19 CNS, 9.38 µM; in the experiment with A498 renal, 8.69 µM. The TGI was determined as 3.39 µM in the experiment on BT-549 breast, 16 µM with NCI-H226 lung, 6.81 µM with OVCAR-8 ovarian and 7.35 µM with COLO 205 colon.
